The results in this text go back to patent publication US20090181931A1, “ANTIVIRAL ACTIVITY OF CIDOFOVIR AGAINST ONCOLYTIC VIRUSES” (priority 2008, published 2009).

In one data set the test system is A549 cells. Nature of the data set: XTT cell viability assay, CDV alone, A549 cells. The format is cell-based. To be noted: for Relative cell viability Ave. / Relative cell viability: A549, no virus, 7 days; for Relative cell viability: single wells, dihydrate. The method, then: (§1) Cells frozen in liquid nitrogen were thawed in water bath at 37° C., seeded at T25 flask, and cultured at 70-90% sub-confluent monolayer. Cells were detached with trypsin, and prepared suspension at a concentration of 1.0×10^4 cells/ml.
(§2) Cells were seeded in 96 well-plate (100 μL/well, 1000 cells/well), then cultured with 5% CO2 at 37° C.
(§3) Viruses were diluted at MOI of 1 (OBP-301, OBP-202) in H1299 and 5 in A549 (PFU/cell). Medium in each well was removed, 150 μL of diluted virus solution was added to each well of the plate. 2 hours later, medium was aspirated and replaced with fresh medium containing 2% FCS and serially diluted CDV. Cells were incubated with 5% CO2 at 37° C. for 7 days after infection.
(§4) 100 μL of PBS, 50 μL of XTT labeling reagent, and 1 μL of ion coupling reagent per well of plate were mixed.
(§5) Medium in each well of plate was removed, and 150 μL of mixture prepared above was added to each well. Plate was incubated with 5% CO2 at 37° C. for 4 hours, and then calculated absorbance at 450 nm and 690 nm. Protection was determined by the formula below: […]

Data set [1] in a line: XTT cell viability assay, CDV alone, A549 cells. The format is cell-based. To be noted: human; A549 cells, XTT; read-out: CC50, CDV concentration that reduce the relative cell viability to 50%. The method, then:
as §1, §2, §3, §4, §5

Structures are written as SMILES. Where “and” joins values, the source holds several entries; their conditions need not be identical. Identical values can stand only once.

As to `Nc1ccn(C[C@@H](CO)OCP(=O)(O)O)c(=O)n1.O.O` [CDV, 1-[(S)-3-hydroxy-2-(phosphonomethoxy)propyl]cytosine dihydrate], the “toxicity of CDV itself” value in the data set with A549 cells (A549 cells, high concentrations) is on record as “toxic”. In addition, the “Relative cell viability Ave.” value with A549 cells (CDV 10 μM) is given as 0.969; with A549 cells (CDV 20 μM), 0.935; in the data set on A549 cells (CDV 30 μM), 0.912; in the data set with A549 cells (CDV 40 μM) it was 0.908; in the data set on A549 cells (CDV 50 μM), 0.852; in the data set on A549 cells (CDV 60 μM) it was 0.798. The “Relative cell viability Ave.” value with A549 cells (CDV 70 μM) was 0.720; in the data set with A549 cells (CDV 80 μM) it was 0.696; in the data set with A549 cells (CDV 90 μM), 0.544; with A549 cells (CDV 100 μM), 0.471. The Relative cell viability in the data set on A549 cells (CDV 10 μM) is 0.993 and 0.938 and 0.962 and 0.982; in the data set with A549 cells (CDV 20 μM), 0.982 and 0.877 and 0.924 and 0.958; in the data set with A549 cells (CDV 30 μM) it was 0.944 and 0.883 and 0.881 and 0.939; in the data set with A549 cells (CDV 40 μM), 0.951 and 0.860 and 0.910 and 0.911; in the data set on A549 cells (CDV 50 μM) it was 0.819 and 0.842 and 0.862 and 0.884; in the data set with A549 cells (CDV 60 μM), 0.755 and 0.792 and 0.809 and 0.837. For the same compound, the Relative cell viability in the data set on A549 cells (CDV 70 μM) was 0.709 and 0.703 and 0.747 and 0.719; with A549 cells (CDV 80 μM), 0.656 and 0.707 and 0.737 and 0.683; in the data set with A549 cells (CDV 90 μM), 0.502 and 0.552 and 0.606 and 0.518; with A549 cells (CDV 100 μM), 0.511 and 0.451 and 0.482 and 0.438. For the same compound, the CC50 at 7 days in data set [1] came to 107 µM.
